Experimental findings from US8877744B2, “1,4-Oxazepines as BACE1 and/or BACE2 inhibitors” (Hoffmann-La Roche Inc., priority 2011, dated 2014) are described below.

Molecules are shown by their SMILES. Where a name gives a salt, the structure may show the parent alone.

T1 sequence (P56817 46-501): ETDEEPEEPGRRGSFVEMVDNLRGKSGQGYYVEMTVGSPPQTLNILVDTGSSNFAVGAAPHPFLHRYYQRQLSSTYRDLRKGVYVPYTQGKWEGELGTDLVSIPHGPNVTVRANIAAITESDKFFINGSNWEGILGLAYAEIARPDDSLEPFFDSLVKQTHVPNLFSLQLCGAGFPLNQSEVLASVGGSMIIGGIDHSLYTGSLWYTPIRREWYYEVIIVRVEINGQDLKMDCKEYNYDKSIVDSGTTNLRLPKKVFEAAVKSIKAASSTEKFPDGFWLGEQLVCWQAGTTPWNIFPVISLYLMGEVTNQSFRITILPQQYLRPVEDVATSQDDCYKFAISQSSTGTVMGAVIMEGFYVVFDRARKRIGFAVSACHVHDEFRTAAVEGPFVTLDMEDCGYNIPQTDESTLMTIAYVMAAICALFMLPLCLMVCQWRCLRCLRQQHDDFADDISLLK

This test concerns the target T1, BACE1 (Homo sapiens, UniProt P56817).
T1 construct: endogenous in cells; host or cells: HEK293 stably transfected with human APP695 wt
Put plainly: Cellular Aβ-lowering assay b): HEK293 APP Abeta 40 AlphaLISA Assay. It is filed as cell-based. The conditions noted are these: assay b): HEK293 APP cells, Aβ 40 in supernatant by AlphaLISA, 18-20 hrs incubation. How it is done:
b) HEK293 APP: Abeta 40 AlphaLISA Assay
The cells were seeded in 96 well Microtiter plates in cell culture medium (Iscove's, plus 10% (v/v) fetal bovine serum, penicillin/streptomycin) to about 80% confluency and the compounds were added at a 3× concentration in ⅓ volume of culture medium (final DMSO concentration was kept at 1% v/v). After 18-20 hrs incubation at 37° C. and 5% CO2 in a humidified incubator, the culture supernatants were harvested for the determination of Aβ 40 concentrations using Perkin-Elmer Human Amyloid beta 1-40 (high specificity) Kit (Cat#AL275C).
In a Perkin-Elmer White Optiplate-384 (Cat#6007290), […] culture supernatants were combined with 2 μl of a 10X AlphaLISA Anti-hAβ Acceptor beads+Biotinylated Antibody Anti-Aβ 1-40 Mix (50 μg/mL/5 nM). After 1 hour room temperature incubation, 16 μl of a 1.25× preparation of Streptavidin (SA) Donor beads (25 μg/mL) were added and incubated for 30 minutes in the Dark. Light Emission at 615 nm was then recorded using EnVision-Alpha Reader. Levels of Aβ 40 in the culture supernatants were calculated as percentage of maximum signal (cells treated with 1% DMSO without inhibitor). The IC50 values were calculated using the Excel XLfit software.
A general note: Bead proximity is the source of the signal in Alpha formats.
`CC1(C)OCC(N)=N[C@](C)(c2cc(-c3nc4cc(Cl)ccc4o3)c(F)cc2F)C1(F)F` [Example 41, (R)-5-[5-(5-Chloro-benzooxazol-2-yl)-2,4-difluoro-phenyl]-6,6-difluoro-5,7,7-trimethyl-2,5,6,7-tetrahydro-[1,4]oxazepin-3-ylamine] displayed an IC50 of 550 nM.
`CC1(C)OCC(N)=N[C@](C)(c2cc(-c3nc4ccc(Cl)cc4o3)c(F)cc2F)C1(F)F` [Example 31, (R)-5-[5-(6-Chloro-benzooxazol-2-yl)-2,4-difluoro-phenyl]-6,6-difluoro-5,7,7-trimethyl-2,5,6,7-tetrahydro-[1,4]oxazepin-3-ylamine]: the IC50 came to 180 nM. Compared with the last compound, the IC50 is about 3.1-fold lower.
As for `CC1(C)OCC(N)=N[C@](C)(c2cc(-c3cn(-c4ccc(C(F)(F)F)cn4)cn3)ccc2F)C1(F)F` [Example 23, (R)-6,6-Difluoro-5-{2-fluoro-5-[1-(5-trifluoromethyl-pyridin-2-yl)-1H-imidazol-4-yl]-phenyl}-5,7,7-trimethyl-2,5,6,7-tetrahydro-[1,4]oxazepin-3-ylamine], the IC50 turned out to be 220 nM. This IC50 and that of the compound before are within 1.5-fold of each other.
`CC1(C)OCC(N)=N[C@](C)(c2cc(C#Cc3ccccn3)ccc2F)C1(F)F` [Example 39, (R)-6,6-Difluoro-5-(2-fluoro-5-pyridin-2-ylethynyl-phenyl)-5,7,7-trimethyl-2,5,6,7-tetrahydro-[1,4]oxazepin-3-ylamine] returned an IC50 of 360 nM.
`CC(C)(C)NS(=O)(=O)c1cccc(-c2ccc(F)c([C@@]3(C)N=C(N)COC(C)(C)C3(F)F)c2)c1` [Example 15, 3′-((R)-3-Amino-6,6-difluoro-5,7,7-trimethyl-2,5,6,7-tetrahydro-[1,4]oxazepin-5-yl)-4′-fluoro-biphenyl-3-sulfonic acid tert-butylamide]: it took 4000 nM to reach half-maximal inhibition (IC50).
`CC1(C)OCC(N)=N[C@](C)(c2cc(-c3ccc(C#N)cc3)ccc2F)C1(F)F` [Example 20, 3′-((R)-3-Amino-6,6-difluoro-5,7,7-trimethyl-2,5,6,7-tetrahydro-[1,4]oxazepin-5-yl)-4′-fluoro-biphenyl-4-carbonitrile] yielded an IC50 of 710 nM.
Then `CC1(C)OCC(N)=N[C@](C)(c2cc(-c3nc4cc(F)c(F)cc4o3)c(F)cc2F)C1(F)F` [Example 42, (R)-5-[5-(5,6-Difluoro-benzooxazol-2-yl)-2,4-difluoro-phenyl]-6,6-difluoro-5,7,7-trimethyl-2,5,6,7-tetrahydro-[1,4]oxazepin-3-ylamine], with 550 nM; and `CC1(C)OCC(N)=N[C@](C)(c2cc(C#Cc3ncc(Cl)cn3)ccc2F)C1(F)F` [Example 34, (R)-5-[5-(5-Chloro-pyrimidin-2-ylethynyl)-2-fluoro-phenyl]-6,6-difluoro-5,7,7-trimethyl-2,5,6,7-tetrahydro-[1,4]oxazepin-3-ylamine], with 13 nM; and `CC1(C)OCC(N)=N[C@](C)(c2cc(C#Cc3cc(C#N)ccn3)ccc2F)C1(F)F` [Example 36, 2-[3-((R)-3-Amino-6,6-difluoro-5,7,7-trimethyl-2,5,6,7-tetrahydro-[1,4]oxazepin-5-yl)-4-fluoro-phenylethynyl]-isonicotinonitrile], with 115 nM.
In the case of `CC1(C)OCC(N)=N[C@](C)(c2cc(C#Cc3cncc(Cl)c3)ccc2F)C1(F)F` [Example 38, (R)-5-[5-(5-Chloro-pyridin-3-ylethynyl)-2-fluoro-phenyl]-6,6-difluoro-5,7,7-trimethyl-2,5,6,7-tetrahydro-[1,4]oxazepin-3-ylamine], the IC50 was determined as 152 nM.
Compound `CC1(C)OCC(N)=N[C@](C)(c2cc(C#Cc3ccnc(Cl)c3)ccc2F)C1(F)F` [Example 35, (R)-5-[5-(2-Chloro-pyridin-4-ylethynyl)-2-fluoro-phenyl]-6,6-difluoro-5,7,7-trimethyl-2,5,6,7-tetrahydro-[1,4]oxazepin-3-ylamine] came in with a concentration for half-maximal inhibition (IC50) of 79 nM.
Consider `COc1cnc(C#Cc2ccc(F)c([C@@]3(C)N=C(N)COC(C)(C)C3(F)F)c2)cn1` [Example 40, (R)-6,6-Difluoro-5-[2-fluoro-5-(5-methoxy-pyrazin-2-ylethynyl)-phenyl]-5,7,7-trimethyl-2,5,6,7-tetrahydro-[1,4]oxazepin-3-ylamine], for which the IC50 is 480 nM.
In turn, `CC1(C)OCC(N)=N[C@](C)(c2cc(-c3cn(-c4ccccn4)cn3)ccc2F)C1(F)F` [Example 22, (R)-6,6-Difluoro-5-[2-fluoro-5-(1-pyridin-2-yl-1H-imidazol-4-yl)-phenyl]-5,7,7-trimethyl-2,5,6,7-tetrahydro-[1,4]oxazepin-3-ylamine] came in with an IC50 of 200 nM.
`COc1ncc(-c2cc([C@@]3(C)N=C(N)COC(C)(C)C3(F)F)c(F)cc2F)cn1` [Example 30, (R)-5-[2,4-Difluoro-5-(2-methoxy-pyrimidin-5-yl)-phenyl]-6,6-difluoro-5,7,7-trimethyl-2,5,6,7-tetrahydro-[1,4]oxazepin-3-ylamine formate] had an IC50 of 75 nM.
`CC1(C)OCC(N)=N[C@](C)(c2cc(C#Cc3cccc(Cl)c3)c(F)cc2F)C1(F)F` [Example 24, (R)-5-[5-(3-Chloro-phenylethynyl)-2,4-difluoro-phenyl]-6,6-difluoro-5,7,7-trimethyl-2,5,6,7-tetrahydro-[1,4]oxazepin-3-ylamine]: the midpoint of inhibition, the IC50, lay at 1270 nM. Compared with the last compound, the IC50 is about 17-fold higher.
As to `CC(C)(C)COS(=O)(=O)c1cccc(-c2ccc(F)c([C@@]3(C)N=C(N)COC(C)(C)C3(F)F)c2)c1` [Example 12, 3′-((R)-3-Amino-6,6-difluoro-5,7,7-trimethyl-2,5,6,7-tetrahydro-[1,4]oxazepin-5-yl)-4′-fluoro-biphenyl-3-sulfonic acid 2,2-dimethyl-propyl ester], the half-maximal inhibitory concentration (IC50) came to 5180 nM. Compared with the last compound, the IC50 is about 4.1-fold higher.
`CC1(C)OCC(N)=N[C@](C)(c2cc(-c3nc4ccc(C(F)(F)F)cc4o3)c(F)cc2F)C1(F)F` [Example 43, (R)-5-[2,4-Difluoro-5-(6-trifluoromethyl-benzooxazol-2-yl)-phenyl]-6,6-difluoro-5,7,7-trimethyl-2,5,6,7-tetrahydro-[1,4]oxazepin-3-ylamine] came in with an IC50 of 70 nM.
`CC(C)(C)NS(=O)(=O)c1cncc(-c2ccc(F)c([C@@]3(C)N=C(N)COC(C)(C)C3(F)F)c2)c1` [Example 16, 5-[3-((R)-3-Amino-6,6-difluoro-5,7,7-trimethyl-2,5,6,7-tetrahydro-[1,4]oxazepin-5-yl)-4-fluoro-phenyl]-pyridine-3-sulfonic acid tert-butylamide] returned a concentration for half-maximal inhibition (IC50) of 1550 nM.
With `CC1(C)OCC(N)=N[C@](C)(c2cc(C#Cc3ccc(Cl)nn3)ccc2F)C1(F)F` [Example 37, (R)-5-[5-(6-Chloro-pyridazin-3-ylethynyl)-2-fluoro-phenyl]-6,6-difluoro-5,7,7-trimethyl-2,5,6,7-tetrahydro-[1,4]oxazepin-3-ylamine] the figure was 145 nM; with `CC1(C)OCC(N)=N[C@](C)(c2cc(-c3nc4ccc(Cl)cc4s3)ccc2F)C1(F)F` [Example 21, (R)-5-[5-(6-Chloro-benzothiazol-2-yl)-2-fluoro-phenyl]-6,6-difluoro-5,7,7-trimethyl-2,5,6,7-tetrahydro-[1,4]oxazepin-3-ylamine hydrochloride], 7430 nM.
With `CC1(C)OCC(N)=N[C@](C)(c2cc(-c3cnn(-c4ccc(F)cc4)c3)c(F)cc2F)C1(F)F` [Example 29, (R)-6,6-Difluoro-5-{2,4-difluoro-5-[1-(4-fluoro-phenyl)-1H-pyrazol-4-yl]-phenyl}-5,7,7-trimethyl-2,5,6,7-tetrahydro-[1,4]oxazepin-3-ylamine] the figure was 940 nM; with `CC1(C)OCC(N)=N[C@](C)(c2cc(-c3cc(F)cc(Cl)c3)ccc2F)C1(F)F` [Example 11, (R)-5-(5′-Chloro-4,3′-difluoro-biphenyl-3-yl)-6,6-difluoro-5,7,7-trimethyl-2,5,6,7-tetrahydro-[1,4]oxazepin-3-ylamine hydrochloride], 510 nM.
As to `CC1(C)OCC(N)=N[C@](C)(c2cc(C#Cc3ccc(C#N)cn3)ccc2F)C1(F)F` [Example 33, 6-[3-((R)-3-Amino-6,6-difluoro-5,7,7-trimethyl-2,5,6,7-tetrahydro-[1,4]oxazepin-5-yl)-4-fluoro-phenylethynyl]-nicotinonitrile], the IC50 turned out to be 3 nM.
For `CC1(C)OCC(N)=N[C@](C)(c2cc(-c3ncc(Cl)cn3)c(F)cc2F)C1(F)F` [Example 32, (R)-5-[5-(5-Chloro-pyrimidin-2-yl)-2,4-difluoro-phenyl]-6,6-difluoro-5,7,7-trimethyl-2,5,6,7-tetrahydro-[1,4]oxazepin-3-ylamine], the IC50 turned out to be 500 nM.

Usually IC50 stands for the concentration at which inhibition is half-maximal.
